Laboratory results as given in article PMC4764579, “Structural insights into the mechanism of activation of the TRPV1 channel by a membrane-bound tarantula toxin” (eLife, 2016).
Positions of bridges follow the written chain, without caps; N, C: chain ends. Residues, ends and D or L forms follow the SMILES beside them.

Molecular target: T1, rat TRPV1 (Rattus norvegicus, UniProt O35433)
T1 construct: expressed in transfected cells; host or cells: Xenopus laevis oocytes (cRNA injection, pGEM-HE vector)
T1 sequence (O35433 whole entry): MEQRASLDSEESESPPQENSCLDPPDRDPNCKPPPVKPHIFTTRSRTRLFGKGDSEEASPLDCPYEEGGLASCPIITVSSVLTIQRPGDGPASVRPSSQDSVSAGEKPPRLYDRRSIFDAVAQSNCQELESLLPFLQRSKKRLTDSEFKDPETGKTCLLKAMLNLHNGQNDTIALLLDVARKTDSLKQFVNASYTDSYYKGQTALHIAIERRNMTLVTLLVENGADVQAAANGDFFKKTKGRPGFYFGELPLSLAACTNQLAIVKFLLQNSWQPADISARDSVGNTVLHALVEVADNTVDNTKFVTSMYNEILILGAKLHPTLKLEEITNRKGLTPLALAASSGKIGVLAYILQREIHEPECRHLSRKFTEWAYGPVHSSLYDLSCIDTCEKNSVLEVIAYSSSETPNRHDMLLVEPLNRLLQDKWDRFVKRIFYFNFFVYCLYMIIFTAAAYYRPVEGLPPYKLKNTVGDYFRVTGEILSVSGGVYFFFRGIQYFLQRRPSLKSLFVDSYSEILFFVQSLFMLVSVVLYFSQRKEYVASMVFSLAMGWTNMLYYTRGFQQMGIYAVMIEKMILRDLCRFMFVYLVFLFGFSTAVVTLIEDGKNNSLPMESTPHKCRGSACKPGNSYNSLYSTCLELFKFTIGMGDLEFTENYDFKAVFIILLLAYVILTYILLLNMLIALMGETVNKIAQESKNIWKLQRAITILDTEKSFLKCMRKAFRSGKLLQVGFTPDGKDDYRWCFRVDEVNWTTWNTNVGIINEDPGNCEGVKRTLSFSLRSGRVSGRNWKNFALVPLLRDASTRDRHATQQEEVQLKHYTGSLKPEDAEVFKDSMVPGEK
Experiment: Two-electrode voltage clamp recordings of oocytes expressing TRPV1, toxin current normalised to saturating capsaicin
Assay type: cell-based
Details: concentration-response, see Figure 3F
Excerpt: Figure 3. Validation of the proposed structural model of the TRPV1-DkTx complex. Close-up of K1 (A) and K2 (B) in the top-ranking ROSETTA model of DkTx bound to TRPV1. Side chains of TRPV1 residues where mutation disrupts DkTx-induced channel activation (I599, F649, A657 and F659) ([Bohlen et al., 2010]) are highlighted in purple. (C) Representative time courses of TRPV1 activation at +120 mV by either DkTx (left panel), K1K1 (middle panel) or K2K2 (right panel) measured from a train of voltage-ramps in the whole-cell configuration with the TRPV1 expressed in HEK cells. […] Fractional dissociation 1 min after toxin removal was quantified across cells as the current amplitude 1 min after toxin removal divided by the steady-state current amplitude in the presence of the toxin. […] Activation of the full-length TRPV1 channel by the toxin at different concentrations was measured in oocytes at a holding voltage of −60 mV. […]
Xenopus laevis oocytes were surgically removed and gently shaken for 60 min in a solution of 82.5 mM NaCl, 2.5 mM KCl, 1 mM MgCl2, 5 mM HEPES and 2 mg/mL collagenase. […] TRPV1 activity was recorded under voltage clamp using a two-electrode voltage clamp (OC-725C; Warner Instruments) in a 150-μL recording chamber. The recorded data were filtered at 1 kHz and digitized at 5 kHz using a digidata analog/digital converter and pClamp software (Molecular Devices). […]

CC[C@H](C)[C@@H]1NC(=O)[C@H](Cc2ccccc2)NC(=O)[C@H](C)NC(=O)[C@H](CC(C)C)NC(=O)[C@@H]2CCCN2C(=O)[C@@H]2CSSC[C@@H]3NC(=O)[C@H](C(C)C)NC(=O)[C@H](CCC(=O)O)NC(=O)CNC(=O)[C@H](CCC(=O)O)NC(=O)[C@H](CCCCN)NC(=O)[C@H](C)NC(=O)[C@@H](NC(=O)[C@@H](N)CC(N)=O)CSSC[C@H](NC(=O)[C@H](CSSC[C@@H](C(=O)N[C@@H](CCC(=O)O)C(=O)N[C@@H](CCCCN)C(=O)N[C@@H](Cc4ccc(O)cc4)C(=O)N[C@@H](CCCNC(=N)N)C(=O)O)NC(=O)[C@H](Cc4ccc(O)cc4)NC(=O)[C@@H]4CCCN4C1=O)NC(=O)[C@H](CCCCN)NC(=O)[C@H](CO)NC(=O)CNC(=O)[C@H](Cc1c[nH]c4ccccc14)NC(=O)CNC3=O)C(=O)N[C@@H](Cc1c[nH]cn1)C(=O)NCC(=O)N[C@@H](CC(C)C)C(=O)N[C@@H](CC(=O)O)C(=O)N2 [K2] (H-NCAKEGEVCGWGSKCCHGLDCPLAFIPYCEKYR-OH; disulfide 2-16, 9-21, 15-29 (inferred); N-terminus and C-terminus assumed)
concentration range where activation of TRPV1 saturates (in words): low micromolar range
